Assay results from ChEMBL document CHEMBL1821675, “The selective P-TEFb inhibitor CAN508 targets angiogenesis” (Eur J Med Chem, 2011).

How the values were obtained:
[1] = system: MCF7; assay: Cytotoxicity against human MCF7 cells; assay type: functional
[2] = system: SF-295; assay: Cytotoxicity against human SF295 cells; assay type: functional
[3] = system: SF-539; assay: Cytotoxicity against human SF539 cells; assay type: functional
[4] = system: U-251; assay: Cytotoxicity against human U251 cells; assay type: functional
[5] = system: HT-29; assay: Cytotoxicity against human HT-29 cells; assay type: functional
[6] = system: A549; assay: Cytotoxicity against human A549 cells; assay type: functional
[7] = system: HOP-62; assay: Cytotoxicity against human HOP62 cells; assay type: functional
[8] = system: NCI-H322M; assay: Cytotoxicity against human NCI-H322M cells; assay type: functional
[9] = system: HL-60(TB); assay: Cytotoxicity against human HL-60(TB) cells; assay type: functional
[10] = system: LOX IMVI; assay: Cytotoxicity against human LOXIMVI cells; assay type: functional
[11] = system: M14; assay: Cytotoxicity against human M14 cells; assay type: functional
[12] = system: OVCAR-4; assay: Cytotoxicity against human OVCAR4 cells; assay type: functional
[13] = system: ACHN; assay: Cytotoxicity against human ACHN cells; assay type: functional
[14] = system: CAKI-1; assay: Cytotoxicity against human Caki1 cells; assay type: functional
[15] = Antiangiogenic activity in VEGF-stimulated HMEC1 assessed as reduction in total length of tube at 40 uM after 16 hrs by photographic analysis; assay type: functional, Homo sapiens, HMEC-1; design: scale not given: the % may be the effect or the level left
[16] = Antiangiogenic activity in VEGF-stimulated HMEC1 assessed as reduction in median length of tube at 20 uM after 16 hrs by photographic analysis; assay type: functional, Homo sapiens, HMEC-1; design: scale not given: the % may be the effect or the level left
[17] = target: Serine/threonine-protein kinase BRSK1 (Homo sapiens) (UniProt Q8TDC3); assay: Inhibition of BRSK1 assessed as residual activity at 10 uM by radioactivity assay in presence of 20 uM ATP
[18] = target: Calcium/calmodulin-dependent protein kinase type 1 (Homo sapiens) (UniProt Q14012); assay: Inhibition of CAMK1 assessed as residual activity at 10 uM by radioactivity assay in presence of 50 uM ATP
[19] = target: Cyclin-dependent kinase 2/cyclin A (Homo sapiens) (UniProt P24941+P20248+P78396); assay: Inhibition of CDK2/cyclin A assessed as residual activity at 10 uM by radioactivity assay in presence of 20 uM ATP; assay type: protein-complex assay
[20] = target: Ephrin type-A receptor 2 (Homo sapiens) (UniProt P29317); assay: Inhibition of EPHA2 assessed as residual activity at 10 uM by radioactivity assay in presence of 50 uM ATP
[21] = target: Ephrin type-B receptor 3 (Homo sapiens) (UniProt P54753); assay: Inhibition of EPH-B3 assessed as residual activity at 10 uM by radioactivity assay in presence of 20 uM ATP
[22] = target: Receptor tyrosine-protein kinase erbB-4 (Homo sapiens) (UniProt Q15303); assay: Inhibition of HER4 assessed as residual activity at 10 uM by radioactivity assay in presence of 5 uM ATP
[23] = target: Inhibitor of nuclear factor kappa-B kinase subunit beta (Homo sapiens) (UniProt O14920); assay: Inhibition of IKK-beta assessed as residual activity at 10 uM by radioactivity assay in presence of 5 uM ATP
[24] = target: Insulin receptor (Homo sapiens) (UniProt P06213); assay: Inhibition of IR assessed as residual activity at 10 uM by radioactivity assay in presence of 20 uM ATP
[25] = target: Mitogen-activated protein kinase 9 (Homo sapiens) (UniProt P45984); assay: Inhibition of JNK2alpha2 assessed as residual activity at 10 uM by radioactivity assay in presence of 20 uM ATP
[26] = target: MAP/microtubule affinity-regulating kinase 3 (Homo sapiens) (UniProt P27448); assay: Inhibition of MARK3 assessed as residual activity at 10 uM by radioactivity assay in presence of 5 uM ATP
[27] = target: MAP/microtubule affinity-regulating kinase 4 (Homo sapiens) (UniProt Q96L34); assay: Inhibition of MARK4 assessed as residual activity at 10 uM by radioactivity assay in presence of 50 uM ATP
[28] = target: Mitogen-activated protein kinase kinase kinase 1 (Homo sapiens) (UniProt Q13233); assay: Inhibition of MEKK1 assessed as residual activity at 10 uM by radioactivity assay in presence of 20 uM ATP
[29] = target: Serine/threonine-protein kinase 26 (Homo sapiens) (UniProt Q9P289); assay: Inhibition of MST4 assessed as residual activity at 10 uM by radioactivity assay in presence of 20 uM ATP
[30] = target: Serine/threonine-protein kinase Nek2 (Homo sapiens) (UniProt P51955); assay: Inhibition of NEK2a assessed as residual activity at 10 uM by radioactivity assay in presence of 50 uM ATP
[31] = target: Mitogen-activated protein kinase 11 (Homo sapiens) (UniProt Q15759); assay: Inhibition of p38beta MAPK assessed as residual activity at 10 uM by radioactivity assay in presence of 20 uM ATP
[32] = target: Serine/threonine-protein kinase PAK 4 (Homo sapiens) (UniProt O96013); assay: Inhibition of PAK4 assessed as residual activity at 10 uM by radioactivity assay in presence of 5 uM ATP
[33] = target: Phosphorylase b kinase gamma catalytic chain, skeletal muscle/heart isoform (Homo sapiens) (UniProt Q16816); assay: Inhibition of PHKG1 assessed as residual activity at 10 uM by radioactivity assay in presence of 50 uM ATP
[34] = target: Serine/threonine-protein kinase pim-2 (Homo sapiens) (UniProt Q9P1W9); assay: Inhibition of PIM2 assessed as residual activity at 10 uM by radioactivity assay in presence of 5 uM ATP
[35] = target: Protein kinase C alpha type (Homo sapiens) (UniProt P17252); assay: Inhibition of PKCalpha assessed as residual activity at 10 uM by radioactivity assay in presence of 20 uM ATP
[36] = target: Serine/threonine-protein kinase PLK1 (Homo sapiens) (UniProt P53350); assay: Inhibition of PLK1 assessed as residual activity at 10 uM by radioactivity assay in presence of 5 uM ATP
[37] = target: Ribosomal protein S6 kinase alpha-1 (Homo sapiens) (UniProt Q15418); assay: Inhibition of RSK1 assessed as residual activity at 10 uM by radioactivity assay in presence of 50 uM ATP
[38] = target: Myosin light chain kinase, smooth muscle (Homo sapiens) (UniProt Q15746); assay: Inhibition of SmMLCK assessed as residual activity at 10 uM by radioactivity assay in presence of 50 uM ATP
[39] = target: Proto-oncogene tyrosine-protein kinase Src (Homo sapiens) (UniProt P12931); assay: Inhibition of Src assessed as residual activity at 10 uM by radioactivity assay in presence of 50 uM ATP
[40] = target: SRSF protein kinase 1 (Homo sapiens) (UniProt Q96SB4); assay: Inhibition of SRPK1 assessed as residual activity at 10 uM by radioactivity assay in presence of 50 uM ATP
[41] = target: Tyrosine-protein kinase Yes (Homo sapiens) (UniProt P07947); assay: Inhibition of YES1 assessed as residual activity at 10 uM by radioactivity assay in presence of 20 uM ATP
Tyrosine-protein kinase Yes (Homo sapiens), sequence (P07947 2-543 limits assumed): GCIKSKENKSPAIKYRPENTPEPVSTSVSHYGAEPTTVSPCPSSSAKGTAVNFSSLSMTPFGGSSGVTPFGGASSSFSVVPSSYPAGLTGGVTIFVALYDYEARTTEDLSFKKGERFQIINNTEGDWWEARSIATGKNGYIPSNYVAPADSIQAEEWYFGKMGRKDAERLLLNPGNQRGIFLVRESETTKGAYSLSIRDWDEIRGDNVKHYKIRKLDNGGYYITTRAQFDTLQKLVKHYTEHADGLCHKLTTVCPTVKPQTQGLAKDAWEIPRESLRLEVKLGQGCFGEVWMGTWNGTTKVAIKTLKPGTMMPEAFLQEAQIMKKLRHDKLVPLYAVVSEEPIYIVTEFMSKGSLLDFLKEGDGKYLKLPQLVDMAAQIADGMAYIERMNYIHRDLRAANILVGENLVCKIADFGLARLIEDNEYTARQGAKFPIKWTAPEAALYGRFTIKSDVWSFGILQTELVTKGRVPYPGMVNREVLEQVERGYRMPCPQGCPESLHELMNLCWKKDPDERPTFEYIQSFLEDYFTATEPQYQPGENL

Mitogen-activated protein kinase 9 (Homo sapiens), sequence (P45984 whole entry, looked up): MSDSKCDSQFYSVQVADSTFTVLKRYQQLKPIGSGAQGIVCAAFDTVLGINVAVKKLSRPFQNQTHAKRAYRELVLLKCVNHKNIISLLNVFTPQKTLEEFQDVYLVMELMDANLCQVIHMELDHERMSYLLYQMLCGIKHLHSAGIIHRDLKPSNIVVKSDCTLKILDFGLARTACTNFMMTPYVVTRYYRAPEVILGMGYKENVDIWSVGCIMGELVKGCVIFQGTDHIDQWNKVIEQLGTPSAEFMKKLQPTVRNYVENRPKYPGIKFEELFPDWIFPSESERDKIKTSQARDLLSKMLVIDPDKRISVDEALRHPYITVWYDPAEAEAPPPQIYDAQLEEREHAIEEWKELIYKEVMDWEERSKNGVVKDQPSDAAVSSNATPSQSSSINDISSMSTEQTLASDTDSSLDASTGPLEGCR
Ephrin type-A receptor 2 (Homo sapiens), sequence (P29317 whole entry): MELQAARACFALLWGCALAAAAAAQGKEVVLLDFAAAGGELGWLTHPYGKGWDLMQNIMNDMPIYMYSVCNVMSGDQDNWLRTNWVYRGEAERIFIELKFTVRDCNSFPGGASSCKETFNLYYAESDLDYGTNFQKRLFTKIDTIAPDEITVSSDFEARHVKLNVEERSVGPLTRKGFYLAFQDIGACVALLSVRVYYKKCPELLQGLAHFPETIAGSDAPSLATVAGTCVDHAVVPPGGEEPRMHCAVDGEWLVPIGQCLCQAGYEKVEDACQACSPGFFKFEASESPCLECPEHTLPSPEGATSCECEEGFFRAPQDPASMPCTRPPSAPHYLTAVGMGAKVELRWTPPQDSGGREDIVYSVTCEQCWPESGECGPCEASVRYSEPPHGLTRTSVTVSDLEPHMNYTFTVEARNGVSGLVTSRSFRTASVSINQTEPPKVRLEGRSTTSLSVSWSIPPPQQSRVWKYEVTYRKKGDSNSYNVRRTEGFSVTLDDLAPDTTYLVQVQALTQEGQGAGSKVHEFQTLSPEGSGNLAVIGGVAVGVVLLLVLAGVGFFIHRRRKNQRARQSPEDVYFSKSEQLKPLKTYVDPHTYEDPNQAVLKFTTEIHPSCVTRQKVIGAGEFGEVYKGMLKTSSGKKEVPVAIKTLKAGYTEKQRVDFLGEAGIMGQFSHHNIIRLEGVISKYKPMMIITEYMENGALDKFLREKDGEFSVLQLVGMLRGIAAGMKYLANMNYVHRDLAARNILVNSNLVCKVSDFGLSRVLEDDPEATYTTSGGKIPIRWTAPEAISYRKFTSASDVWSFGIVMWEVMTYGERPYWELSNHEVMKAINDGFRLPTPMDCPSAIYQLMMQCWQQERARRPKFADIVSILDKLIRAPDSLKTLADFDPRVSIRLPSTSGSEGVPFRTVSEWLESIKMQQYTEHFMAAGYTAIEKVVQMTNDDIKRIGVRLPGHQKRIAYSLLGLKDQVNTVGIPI
Myosin light chain kinase, smooth muscle (Homo sapiens), sequence (Q15746 whole entry): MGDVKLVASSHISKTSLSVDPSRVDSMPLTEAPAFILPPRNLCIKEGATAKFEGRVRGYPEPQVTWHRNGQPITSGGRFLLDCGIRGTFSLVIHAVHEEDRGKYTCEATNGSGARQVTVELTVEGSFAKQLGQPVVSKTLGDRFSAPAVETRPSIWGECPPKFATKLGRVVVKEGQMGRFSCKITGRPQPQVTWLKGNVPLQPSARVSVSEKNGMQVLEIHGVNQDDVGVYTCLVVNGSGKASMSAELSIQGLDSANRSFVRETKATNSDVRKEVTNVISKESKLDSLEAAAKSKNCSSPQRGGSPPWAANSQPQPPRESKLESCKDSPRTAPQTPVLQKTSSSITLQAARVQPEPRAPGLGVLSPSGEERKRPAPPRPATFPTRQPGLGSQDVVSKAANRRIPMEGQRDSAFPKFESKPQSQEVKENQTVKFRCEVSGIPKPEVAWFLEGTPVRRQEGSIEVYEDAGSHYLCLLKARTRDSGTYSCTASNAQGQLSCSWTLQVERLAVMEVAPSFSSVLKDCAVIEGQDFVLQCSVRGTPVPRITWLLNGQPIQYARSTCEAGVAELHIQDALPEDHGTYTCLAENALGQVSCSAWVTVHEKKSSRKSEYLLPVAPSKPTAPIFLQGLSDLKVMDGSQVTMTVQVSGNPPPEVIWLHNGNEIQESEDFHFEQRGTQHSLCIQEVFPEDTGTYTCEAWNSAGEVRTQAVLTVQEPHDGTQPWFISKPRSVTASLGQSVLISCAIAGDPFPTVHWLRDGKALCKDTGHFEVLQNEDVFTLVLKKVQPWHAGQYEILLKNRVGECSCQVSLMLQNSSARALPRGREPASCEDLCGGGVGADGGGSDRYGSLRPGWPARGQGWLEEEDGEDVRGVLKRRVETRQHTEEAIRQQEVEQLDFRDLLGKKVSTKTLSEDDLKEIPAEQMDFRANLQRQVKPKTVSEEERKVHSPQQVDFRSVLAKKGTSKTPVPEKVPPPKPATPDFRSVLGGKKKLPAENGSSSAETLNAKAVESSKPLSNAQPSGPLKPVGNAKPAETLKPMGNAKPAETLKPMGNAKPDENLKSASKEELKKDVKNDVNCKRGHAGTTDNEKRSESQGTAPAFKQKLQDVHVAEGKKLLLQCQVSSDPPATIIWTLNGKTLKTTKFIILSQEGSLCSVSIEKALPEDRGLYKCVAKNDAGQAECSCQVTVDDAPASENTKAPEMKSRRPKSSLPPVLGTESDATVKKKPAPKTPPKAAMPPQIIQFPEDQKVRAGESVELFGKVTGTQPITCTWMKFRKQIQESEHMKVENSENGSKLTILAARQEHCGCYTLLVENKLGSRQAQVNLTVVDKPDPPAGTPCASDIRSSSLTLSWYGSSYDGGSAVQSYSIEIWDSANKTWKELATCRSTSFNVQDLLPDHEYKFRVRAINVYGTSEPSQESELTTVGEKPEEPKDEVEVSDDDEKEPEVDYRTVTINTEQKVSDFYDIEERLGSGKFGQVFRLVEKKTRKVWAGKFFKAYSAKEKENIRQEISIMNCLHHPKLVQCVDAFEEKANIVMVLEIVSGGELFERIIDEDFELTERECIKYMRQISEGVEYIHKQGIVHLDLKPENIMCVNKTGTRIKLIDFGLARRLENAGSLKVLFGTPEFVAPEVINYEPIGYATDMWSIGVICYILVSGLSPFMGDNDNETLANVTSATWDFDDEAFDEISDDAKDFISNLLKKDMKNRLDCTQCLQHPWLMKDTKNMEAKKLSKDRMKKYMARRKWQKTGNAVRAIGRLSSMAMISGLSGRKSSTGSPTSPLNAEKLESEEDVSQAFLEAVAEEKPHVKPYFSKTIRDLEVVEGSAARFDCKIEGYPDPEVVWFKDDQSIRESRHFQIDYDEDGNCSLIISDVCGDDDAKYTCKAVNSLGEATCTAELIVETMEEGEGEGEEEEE
Mitogen-activated protein kinase 11 (Homo sapiens), sequence (Q15759 whole entry): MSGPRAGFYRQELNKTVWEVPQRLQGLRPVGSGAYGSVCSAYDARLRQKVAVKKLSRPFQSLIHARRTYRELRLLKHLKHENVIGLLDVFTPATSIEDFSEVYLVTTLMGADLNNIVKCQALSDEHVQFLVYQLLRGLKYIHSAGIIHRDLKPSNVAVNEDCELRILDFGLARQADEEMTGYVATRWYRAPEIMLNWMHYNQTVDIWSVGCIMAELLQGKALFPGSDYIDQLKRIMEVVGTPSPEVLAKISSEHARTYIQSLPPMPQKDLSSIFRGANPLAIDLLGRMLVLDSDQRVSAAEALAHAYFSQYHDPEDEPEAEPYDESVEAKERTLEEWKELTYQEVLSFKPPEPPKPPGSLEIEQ
Serine/threonine-protein kinase Nek2 (Homo sapiens), sequence (P51955 whole entry): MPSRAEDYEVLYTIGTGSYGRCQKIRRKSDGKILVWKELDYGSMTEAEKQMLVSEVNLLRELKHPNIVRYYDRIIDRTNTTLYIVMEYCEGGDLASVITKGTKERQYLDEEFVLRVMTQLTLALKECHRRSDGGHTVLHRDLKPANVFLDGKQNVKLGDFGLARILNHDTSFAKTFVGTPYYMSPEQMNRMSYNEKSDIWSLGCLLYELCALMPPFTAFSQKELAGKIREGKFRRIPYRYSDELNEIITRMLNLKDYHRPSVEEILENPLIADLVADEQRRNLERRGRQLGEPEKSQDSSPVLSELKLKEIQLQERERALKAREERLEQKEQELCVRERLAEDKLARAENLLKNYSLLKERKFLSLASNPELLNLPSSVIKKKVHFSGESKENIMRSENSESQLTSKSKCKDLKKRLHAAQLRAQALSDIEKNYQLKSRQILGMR
Phosphorylase b kinase gamma catalytic chain, skeletal muscle/heart isoform (Homo sapiens), sequence (Q16816 whole entry, looked up, canonical isoform): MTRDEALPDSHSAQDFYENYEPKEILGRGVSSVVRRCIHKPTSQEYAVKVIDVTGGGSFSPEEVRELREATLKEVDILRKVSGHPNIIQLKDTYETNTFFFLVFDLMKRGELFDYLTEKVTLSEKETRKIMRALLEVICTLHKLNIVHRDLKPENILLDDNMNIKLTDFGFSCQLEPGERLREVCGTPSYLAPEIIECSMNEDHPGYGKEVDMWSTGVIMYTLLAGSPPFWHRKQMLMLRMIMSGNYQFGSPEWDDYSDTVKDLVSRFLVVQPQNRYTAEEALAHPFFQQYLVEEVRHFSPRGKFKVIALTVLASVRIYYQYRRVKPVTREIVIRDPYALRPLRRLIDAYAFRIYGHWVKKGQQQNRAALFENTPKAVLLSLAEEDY

Nc1n[nH]c(N)c1/N=N/c1ccc(O)cc1
GI50 [1]: 23.5 µM
GI50 [2]: 23.3 µM
GI50 [3]: 13.2 µM
GI50 [4]: 21.2 µM
GI50 [5]: 29.7 µM
GI50 [6]: 22.5 µM
GI50 [7]: 31.8 µM
GI50 [8]: 25.1 µM
GI50 [9]: 6.4 µM
GI50 [10]: 4.1 µM
GI50 [11]: 15.9 µM
GI50 [12]: 19 µM
GI50 [13]: 15.6 µM
GI50 [14]: 14.8 µM
Activity [15]: 30%
Activity [16]: 30%
Activity [17]: 66%
Activity [18]: 81%
Activity [19]: 27%
Activity [20]: 101%
Activity [21]: 45%
Activity [22]: 59%
Activity [23]: 31%
Activity [24]: 78%
Activity [25]: 102%
Activity [26]: 50%
Activity [27]: 72%
Activity [28]: 100%
Activity [29]: 77%
Activity [30]: 106%
Activity [31]: 102%
Activity [32]: 79%
Activity [33]: 29%
Activity [34]: 69%
Activity [35]: 83%
Activity [36]: 77%
Activity [37]: 93%
Activity [38]: 54%
Activity [39]: 62%
Activity [40]: 85%
Activity [41]: 79%
